From patent publication US10973810B2, “Methods for the treatment of neurological disorders” (Yumanity Therapeutics, Inc., priority 2017, dated 2021)

What was measured:
[1] = system: alpha-synuclein transfected U2OS cells; experiment: U2OS ATP assay of alpha-synuclein toxicity; assay type: cell-based, human; details: 72 h after transfection/treatment; titration; normalized to DMSO control
Description: U2OS cells were transfected with empty vector control (“pcDNA”) or alpha-synuclein (“α-synuclein/pcDNA”) in combination with a scrambled (SCR) siRNA control (50 nM), or human SCD5 siRNA (10, 25 or 50 nM). (FIG. 12A) Cellular heath was assessed 48 h after transfection by evaluating ATP levels. Cell toxicity in the alpha-synuclein plus SCR siRNA was set as the floor of the assay, and then all samples were normalized to pcDNA with […] (set to 100%) to calculate the normalized percent rescue. Bars depict mean values of triplicate determinations; error bars indicate standard deviation. A two-tailed t-test was used to compare control conditions with SCR or SCD5 siRNA (*p 0.05). Cells transfected with alpha-synuclein were analyzed together by ANOVA with Dunnett's post-test to correct for multiple comparisons (**p 0.01, ****p 0.0001). Significance is shown for the comparison of each alpha-synuclein plus SCD5 siRNA concentration compared against the alpha-synuclein plus SCR control. (FIG. 12B) Quantitative RT-PCR was utilized to confirm the levels of SCD5 mRNA. […]
Powders of reference SCD inhibitors (CAY10566, A939572 and MF-438) were resuspended and serial diluted in DMSO. […] ATP content was then measured using the CellTiter-Glo® kit (Promega) with luminescence signals measured on an EnVision multimode plate reader (Perkin Elmer).

[2] = system: human iPSC-derived neurons harboring the alpha-synuclein A53T mutation; experiment: Neuron survival assay, human iPSC-derived neurons harboring the alpha-synuclein A53T mutation; assay type: cell-based; details: 100 nM and 30 nM; relative to DMSO controls in A53T neurons; 8 to 10 d
Description: FIG. 15 is a graph showing that SCD inhibition with CAY10566 reduced the cumulative risk of death in human iPSC-derived neurons harboring the alpha-synuclein A53T mutation. Human iPSC cells harboring the alpha-synuclein A53T mutation or an isogenic control line in which the mutation was corrected to wild-type were trans-differentiated into neurons. Single cells were evaluated for survival (based on overall morphology) over the course of the 192 hour study. Cell survival data was analyzed by a non-parametric Kaplan-Meier procedure to estimate survival probability, which is shown as the cumulative risk of cell death. (HR, hazard ratio; P, p value (*<0.05, ns=not significant (>0.05)); CI, confidence interval; N, number of neurons tracked). […]
Transfected neuronal cultures were imaged at 12-24 h intervals for the indicated number of days by robotic microscopy. Fluorescence images were acquired with a Nikon Eclipse Ti microscope equipped with a motorized stage, 20× extra-long working distance (ELWD) objective, and an Andor Zyla cMOS camera. […] Images were processed and analyzed with custom-made scripts in R and ImageJ software. The lifetimes of individual neurons were determined by tracking fluorescently-labeled neurons in ImageJ. Neuronal death was determined to occur upon incidence of RFP signal loss or rupture of cell body. […]

Which “cellular ATP levels in alpha-synuclein transfected U2OS cells” value [1] does the source give for `Cc1nnc(-c2ccc(N3CCC(Oc4cc(F)ccc4Cl)CC3)nn2)o1` [CAY10566] here?
Its value is “significantly reversed alpha-synuclein-dependent decreases in ATP levels”.

And the “risk of neuron death” value [2]?
Its value is “significantly reduced”.
